According to patent US7923243B2, “Stress-responsive induction of a therapeutic agent and methods of use” (University of Southern California, priority 1999, dated 2011):

Tested on: B/C10ME fibrosarcoma
Assay: Tumor formation and GCV treatment, B/C10ME fibrosarcoma in BALB/c mice
Assay type: in vivo
Details: 2×10^7 cells s.c.; GCV 100 mg/kg daily from day 21, tumor diameter about 2 cm
Method: Tumor Formation. Confluent cultures of B/C10ME clones were harvested with trypsin-EDTA (Gibco/BRL) and washed three times in PBS. Approximately 2×10^7 viable cells were resuspended in […] of PBS. Six- to eight-week-old BALB/c mice obtained from Jackson Laboratory were subcutaneously injected with an 18-gauge needle in their right flank. Tumors were palpable within 12 days of inoculation and bi-perpendicular measurements were taken of the progressively growing tumor daily. Tumor growth was monitored by measurement of the larger and smaller diameters. At the indicated times post-injection, mice were injected with GCV daily at a dosage of 100 mg/kg of body weight for about 10 days. Tumors were judged to have regressed after losing both measurability and palpability. For each retroviral construct, multiple injections of 2 to 3 independently derived transduced clonal cell lines were performed.
Complete Eradication of Tumors in G1NaGrpTk Transduced Cells. To directly compare the therapeutic efficacy of the G1NaGrpTk vector with G1TkSvNa, B/C10ME clones transduced with the respective retroviral constructs were injected subcutaneously at a dose of 2×10^7 cells per BALB/c mouse. As controls, the parental, non-transduced cells were also injected. Tumors were palpable after 12 days of injection. At day 21, when the average tumor diameter reached about 2 cm, GCV was administered. […]

In the case of `Nc1nc(O)c2ncn(COC(CO)CO)c2n1` [GCV, ganciclovir], the “tumor growth following GCV treatment” value is reported as “tumors continued to grow at various rates”.
